Test results as given in patent EP0912534B1, “MUSCARINIC ANTAGONISTS” (SCHERING CORPORATION, priority 1996, dated 1998).

Tests used:
[1] = target: T1, cloned human m1 muscarinic receptor (Homo sapiens, UniProt P11229); assay: Muscarinic binding activity (3H-QNB displacement), m1; conditions: Ki m1, membranes of transfected CHO cells
T1 sequence (P11229 1-460): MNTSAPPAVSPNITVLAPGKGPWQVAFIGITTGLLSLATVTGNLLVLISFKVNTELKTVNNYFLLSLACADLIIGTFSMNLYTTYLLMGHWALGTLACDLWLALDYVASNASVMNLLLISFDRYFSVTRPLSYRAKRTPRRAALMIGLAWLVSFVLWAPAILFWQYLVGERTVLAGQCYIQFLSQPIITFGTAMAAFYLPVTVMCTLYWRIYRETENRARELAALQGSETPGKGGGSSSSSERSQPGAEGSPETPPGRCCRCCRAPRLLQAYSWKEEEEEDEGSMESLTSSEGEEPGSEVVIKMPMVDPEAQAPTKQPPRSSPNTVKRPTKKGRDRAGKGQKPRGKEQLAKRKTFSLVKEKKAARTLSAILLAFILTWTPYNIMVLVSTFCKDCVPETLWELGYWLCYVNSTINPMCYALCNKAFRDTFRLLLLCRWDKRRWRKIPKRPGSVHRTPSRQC

[2] = target: T2, cloned human m2 muscarinic receptor (Homo sapiens, UniProt P08172); assay: Muscarinic binding activity (3H-QNB displacement), m2; conditions: Ki m2, membranes of transfected CHO cells
T2 sequence (P08172 1-466): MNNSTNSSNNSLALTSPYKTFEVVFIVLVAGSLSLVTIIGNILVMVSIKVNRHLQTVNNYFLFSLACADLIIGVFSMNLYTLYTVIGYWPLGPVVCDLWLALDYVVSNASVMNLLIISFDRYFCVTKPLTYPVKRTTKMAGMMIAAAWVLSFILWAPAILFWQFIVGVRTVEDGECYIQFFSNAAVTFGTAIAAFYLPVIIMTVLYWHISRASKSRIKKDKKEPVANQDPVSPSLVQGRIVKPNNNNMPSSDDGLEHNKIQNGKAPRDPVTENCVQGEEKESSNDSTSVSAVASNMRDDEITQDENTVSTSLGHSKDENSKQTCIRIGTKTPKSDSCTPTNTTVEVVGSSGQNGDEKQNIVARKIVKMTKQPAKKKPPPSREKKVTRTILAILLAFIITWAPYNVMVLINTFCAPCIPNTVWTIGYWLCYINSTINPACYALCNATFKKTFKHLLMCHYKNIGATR

[3] = target: T3, cloned human m4 muscarinic receptor (Homo sapiens, UniProt P08173); assay: Muscarinic binding activity (3H-QNB displacement), m4; conditions: Ki m4, membranes of transfected CHO cells
T3 sequence (P08173 1-479): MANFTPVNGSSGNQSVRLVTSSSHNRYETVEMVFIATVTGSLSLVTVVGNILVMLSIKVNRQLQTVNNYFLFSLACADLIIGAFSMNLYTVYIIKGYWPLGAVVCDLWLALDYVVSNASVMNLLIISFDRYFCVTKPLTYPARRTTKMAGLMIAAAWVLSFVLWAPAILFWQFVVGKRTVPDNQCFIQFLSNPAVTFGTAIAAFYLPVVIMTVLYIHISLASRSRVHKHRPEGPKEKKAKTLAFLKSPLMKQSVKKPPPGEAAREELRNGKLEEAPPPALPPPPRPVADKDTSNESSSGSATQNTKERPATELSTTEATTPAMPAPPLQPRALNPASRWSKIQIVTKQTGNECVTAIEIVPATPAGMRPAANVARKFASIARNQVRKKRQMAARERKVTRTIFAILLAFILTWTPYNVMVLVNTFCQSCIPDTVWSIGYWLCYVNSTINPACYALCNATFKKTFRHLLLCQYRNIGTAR

[4] = test system: Release of Acetyl Choline (ACh) from Striatum; assay: Microdialysis: release of acetylcholine from striatum of conscious rats; assay type: in vivo, male Sprague-Dawley Rats; conditions: 10 mg/kg peritoneal, 3 rats, Isomer B
Experimental: The skull was exposed and drilled through to the dura at a point 0.2 mm anterior and 3.0 mm lateral to the bregma. At these coordinates, a guide cannula was positioned at the outer edge of the dura through the drilled opening, lowered perpendicularly to a depth of 2.5 mm, and permanently secured with dental cement to bone screws. Following the surgery, rats were given ampicillin (40 mg/kg, ip) and individually housed in modified cages. A recovery period of approximately 3 to 7 days was allowed before the microdialysis procedure was undertaken. • Microdialysis: All of the equipment and instrumentation used to conduct in vivo microdialysis was obtained from Bioanalytical Systems, Inc. (BAS). The microdialysis procedure required the insertion through the guide cannula of a thin, needle-like perfusable probe (CMA/12.3 mm x 0.5 mm) to a depth of 3 mm in striatum beyond the end of the guide. The probe was connected beforehand with tubing to a microinjection pump (CMA-/100). Rats were collared and tethered, and, following probe insertion, were placed in a large clear plexiglass bowl with litter material and access to food and water. The probe was perfused at 2 µl/min with Ringer's buffer (NaCl 147 mM; KCI 3.0 mM; CaCl2 1.2 mM; MgCl2 1.0 mM) containing 5.5 mM glucose, 0.2 mM L-ascorbate, and 1 µM neostigmine bromide at pH 7.4. To achieve stable baseline readings, microdialysis was allowed to proceed for 90 minutes prior to the collection of fractions. Fractions (20 µl) were obtained at 10-minute intervals over a 3-hour period using a refrigerated collector (CMA/170 or 200). Following the collection of four to five baseline fractions, the drug or combination of drugs to be tested was administered to the animal. Once collection was complete, each rat was autopsied to determine how accurately the probe was placed. • Acetylcholine (ACh) analysis: The concentration of ACh in collected samples of microdialysate was determined using HPLC/electrochemical detection. Samples were auto-injected (Waters 712 Refrigerated Sample Processor) onto a polymeric analytical HPLC column (BAS, MF-6150) and eluted with 50 mM Na2HPO4, pH 8.5. To prevent bacterial growth, Kathon CG reagent (0.005%) (BAS) was included in the mobile phase. Eluate from the analytical column, containing separated ACh and choline, was then immediately passed through an immobilized enzyme reactor cartridge (BAS, MF-6151) coupled to the column outlet. The reactor contained both acetylcholinesterase and choline oxidase covalently bound to a polymeric backbone. […] Data acquisition was carried out using an IBM Model 70 computer equipped with a microchannel IEEE board. Integration and quantification of peaks were accomplished using "Maxima" chromatography software (Waters Corporation). Total run time per sample was 11 minutes at a flow rate of 1 ml/min. Retention times for acetylcholine and choline were 6.5 and 7.8 minutes respectively. To monitor and correct for possible changes in detector sensitivity during chromatography, ACh standards were included at the beginning, middle and end of each sample queue.
Increases in ACh levels are consistent with presynaptic m2 receptor antagonism.

COc1ccc(S(=O)(=O)c2ccc3c(c2)CCC3N2CCN(C3CCCCC3)C[C@H]2C)cc1 (single isomer, unassigned) [Compound 15]
Ki [1]: 1.23 nM
Ki [2]: 0.11 nM
Ki [3]: 0.27 nM
Mean % of baseline ([4]; sample collection time 20 min (control, first baseline, before injection)): 98.61 % of baseline
Mean % of baseline ([4]; sample collection time 30 min (control, second baseline, before injection)): 93.87 % of baseline
Mean % of baseline ([4]; sample collection time 40 min (control, third baseline, before injection)): 102.42 % of baseline
Mean % of baseline ([4]; sample collection time 50 min (compounds injected at 50 minutes)): 103.86 % of baseline
Mean % of baseline ([4]; sample collection time 60 min, injected at 50 min): 102.14 % of baseline
Mean % of baseline ([4]; sample collection time 70 min, injected at 50 min): 175.31 % of baseline
Mean % of baseline ([4]; sample collection time 80 min, injected at 50 min): 278.67 % of baseline
Mean % of baseline ([4]; sample collection time 90 min, injected at 50 min): 266.94 % of baseline
Mean % of baseline ([4]; sample collection time 100 min, injected at 50 min): 245.19 % of baseline
Mean % of baseline ([4]; sample collection time 110 min, injected at 50 min): 217.34 % of baseline
Mean % of baseline ([4]; sample collection time 120 min, injected at 50 min): 222.39 % of baseline
Mean % of baseline ([4]; sample collection time 130 min, injected at 50 min): 205.69 % of baseline
Mean % of baseline ([4]; sample collection time 140 min, injected at 50 min): 188.49 % of baseline
Mean % of baseline ([4]; sample collection time 150 min, injected at 50 min): 189.79 % of baseline
Mean % of baseline ([4]; sample collection time 160 min, injected at 50 min): 184.27 % of baseline
Mean % of baseline ([4]; sample collection time 170 min, injected at 50 min): 189.27 % of baseline
Mean % of baseline ([4]; sample collection time 180 min, injected at 50 min): 189.86 % of baseline
